Consider 1 molecule from patent US10716313B2, “Ampicillin resistant texturizing lactic acid bacteria strains” (Chr. Hansen A/S, priority 2012, dated 2020).

This experiment deals with Lactobacillus delbrueckii subsp. bulgaricus. The experiment can be described thus: Ampicillin growth reduction (OD600) in MRS broth. The format is cell-based. The note with it: at least 20 hours at 37° C., stated as typical. How it is done: In order to isolate ampicillin resistant mutants of the Lactobacillus delbrueckii subsp. bulgaricus strain CHCC13995, cells derived from the growth of a single colony were inoculated anaerobically into 10 ml MRS broth containing one of the following amounts of ampicillin, 0 ng/ml, 100 ng/ml, 200 ng/ml, 300 ng/ml, 400 ng/ml, 500 ng/ml, 600 ng/ml or 700 ng/ml, and grown for at least 20 hours at 37° C. After the 20 hours of growth OD600 is measured for all samples. Typically the concentration of ampicillin that reduces the OD600 measured anaerobic growth of Lactobacillus delbrueckii subsp. bulgaricus with at least 20% as compared to the growth in MRS medium without ampicillin (i.e. with 0 ng/ml ampicillin) is higher than 300 ng/ml. Cultures where the concentration of ampicillin was 500 ng/ml were diluted and plated on MRS agar plates with no ampicillin added and then incubated anaerobically for at least 20 hours at 37° C. Colonies were then picked and screened for anaerobic growth at 37° C. in microtiter plates in the presence of 500 ng/ml ampicillin. Typically, 25% of the resulting colonies were identified as fast growers in the presence of ampicillin. These were chosen for further study. The selected ampicillin resistant mutants were further purified and tested for their ability to grow in milk. […]

Turning to `CC1(C)S[C@@H]2[C@H](NC(=O)[C@H](N)c3ccccc3)C(=O)N2[C@H]1C(=O)O` [ampicillin], the “concentration of ampicillin that reduces the OD600 measured anaerobic growth with at least 20% as compared to the growth in MRS medium without ampicillin” value is given as “higher than 300 ng/ml”.
